Measured values taken from patent publication US20240344241A1, “PROTEINACEOUS MOLECULES AND USES THEREFOR” (THE UNIVERSITY OF QUEENSLAND, priority 2021, published 2024).
Bridge positions count the residues as written; N and C are the ends. Peptide text beside a SMILES is read from it.

Columns and labels:
human blood [1] = test: HEPTEM assay of blood samples from the ex vivo ECMO model; conditions: ECMO circuit, heparinase added
Description: (§1) The duration of effect for each treatment was also monitored by taking blood samples from the circuit over time and performing clotting assays (refer to FIG. 18). In ACT assays, a clotting time of more than 200 s was maintained for cyclic MCoFx7 over the course of the experiment (>300 s from 0.5 h-6 h).
(§2) Ex vivo ECMO circuits (Permanent Life Support [PLS] System, Maquet C P, Rastatt, Germany) consisted of a Quadrox D Oxygenator and ROTAFLOW centrifugal pump, both incorporated into a tubing set, with a tip-to-tip BIOLINE (albumin and heparin) coating. Initially, the PLS system was primed with Plasma-Lyte 148 and heated to 37.8° C. […] Inlet and outlet pressures between the membrane oxygenator were monitored using a silicone-based pressure transducer (Omega Engineering, Norwalk, CT, USA) and were recorded as the delta oxygenator pressure (P). […]
(§3) Activated clotting time (ACT) was measured in fresh whole blood using celite tubes with the Hemochron 401 coagulation analyzer (Soma Technology, Bloomfield, CT, USA). Whole blood clot formation was recorded by ROTEM® Thromboelastometry (Haemoview Diagnostics, Brisbane, Australia) using INTEM (contact factor-initiated coagulation) and HEPTEM (contact factor-initiated coagulation with heparinase) activating reagents according to the manufacturer's instructions.

human blood [2] = test: INTEM assay of blood samples from the ex vivo ECMO model; conditions: ECMO circuit, single dose 20 μM
Description: as §1, §2, §3

human blood [3] = test: ACT assay of blood samples from the ex vivo ECMO model; conditions: ECMO circuit, single dose 20 μM
Description: as §1, §2, §3

[4] = tested on: human whole blood, intrinsic pathway (INTEM); test: Rotational thromboelastometry INTEM in human whole blood
Description: (§4) The anticoagulant activity of cyclic MCoFx7 was determined in human whole blood using two assays: activated clotting time (ACT) and rotational thromboelastometry (ROTEM). In ACT assays, the clotting time (y-axis) was increased in a dose-dependent manner from the control (124 s), reaching 223 s with 20 μM MCoFx7. […] Anticoagulant activity was verified by thromboelastometry (TEM) that was measured after activation of the intrinsic pathway (INTEM) (refer to FIG. 16). […] By comparison, a single concentration of cyclic [A25P]MCoFx7 (10 μM) produced a clotting time of 500 s, similar to cyclic MCoFx7 at 10 μM (469 s).
as §3

human whole blood = test: Activated clotting time (ACT) in human whole blood
Description: as §4, §3

Human β-FXIIa [5] = molecular target: T1, Human β-FXIIa (Homo sapiens, UniProt P00748); test: FXIIa competitive inhibition assay, fluorescent substrate Boc-QGR-MCA; assay type: biochemical; conditions: 0.5 nM FXIIa, 50 μM Boc-QGR-MCA; read-out: Ki for FXIIa, fluorescent substrate
T1 construct: Human β-FXIIa was obtained from Molecular Innovations, together with human FXa, human FXIa, human α-thrombin, and human plasma kallikrein; purchased Molecular Innovations; host or cells: purified from human plasma
How it was run: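 Human β-FXIIa (10 nM) preincubated to equilibrium with serially diluted inhibitors at room temperature in Tris pH 8.0 with NaCl, CaCl2 and Triton X-100. Activity followed with 100 μM Ac-QRFR-pNA (KM 162 μM) at 405 nm, or for later variants 0.5 nM enzyme with 50 μM Boc-QGR-MCA (KM 187 μM) by fluorescence. Ki from Morrison fits.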

[6] = tested on: clotting via the extrinsic pathway; test: Prothrombin time (PT) assay in human plasma; assay type: biochemical; conditions: at 10 μM
Description: (§5) Citrated, platelet-poor plasma samples from healthy adults were collected, prepared, and stored using previously established collection protocols, such as in Zdenek et al. (2019) Toxicol in Vitro, 58: 97-109.
(§6) Standard coagulation assays were used to determine the effect of the inhibitors on the clotting time of human plasma. Activated partial thromboplastin time (aPTT) uses a Kaolin reagent (clay) to activate the intrinsic/contact pathway of the coagulation cascade, whereas prothrombin time (PT) uses Neoplastine (lyophilized thromboplastin prepared from rabbit cerebral tissue) to activate the extrinsic/tissue-factor pathway of the coagulation cascade. A minor adjustment was made to both tests (addition of 25 μL inhibitor or buffer; refer to Table 17) to accommodate the addition of an inhibitor without changing the total volume (and therefore relative ratios of additives) of the assay. Concentrations of inhibitor are reported as the concentration at the point of incubation in the assay, i.e. not taking into account the addition of the start reagent (calcium for aPTT, or Neoplastine for PT).
(§7) Clotting time (seconds) of plasma was automatically measured using a STA-R Max® analyzer (Stago, Asnieres sur Seine, France). Measurements were conducted using a viscosity-based (mechanical) detection system, whereby opposing magnets oscillate a small metal spherical pellet inside the test cuvette (250 μL total volume) until a clot is formed. Dilution of the inhibitor in Owren-Koller (OK) buffer for dose-response curves was performed automatically by the machine. Reagents were kept at 15-19° C. in the machine during experimentation and otherwise stored at 4° C. All tests were performed in triplicate.

Rec. human matriptase = molecular target: T2, Rec. human matriptase (Homo sapiens, UniProt Q9Y5Y6); test: Matriptase inhibition assay; assay type: biochemical
T2 construct: purchased R&D Systems
T2 sequence (Q9Y5Y6 615-855 limits assumed): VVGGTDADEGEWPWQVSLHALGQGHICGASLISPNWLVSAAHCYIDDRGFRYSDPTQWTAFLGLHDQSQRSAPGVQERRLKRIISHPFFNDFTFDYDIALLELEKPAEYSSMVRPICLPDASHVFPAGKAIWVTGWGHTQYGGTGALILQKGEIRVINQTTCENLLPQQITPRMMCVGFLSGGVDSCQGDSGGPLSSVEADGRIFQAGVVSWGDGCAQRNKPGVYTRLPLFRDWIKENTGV
Description: (§8) The activity of acyclic and cyclic MCoFx1-5 and analogues thereof was assessed in competitive inhibition assays, as previously described in Swedberg et al. (2016) J Med Chem, 59: 7287-7292. Human β-FXIIa was obtained from Molecular Innovations, together with human FXa, human FXIa, human α-thrombin, and human plasma kallikrein. Human cationic trypsin and human plasmin were obtained from Sigma-Aldrich, and recombinant human matriptase was sourced from R&D Systems. Recombinant human urokinase (uPA) and recombinant human tissue plasminogen activator (tPA) were expressed in Expi293 cells, as previously described in Li et al. (2019) Chembiochem, 20: 46-50. FXIIa inhibition assays were performed in clear, low-binding 96-well plates using 250 μL (final volume) of assay buffer (0.1 M Tris-HCl pH 8.0, 0.1 M NaCl, 10 mM CaCl2 and 0.005% Triton X-100). Inhibitors were serially diluted and incubated with 10 nM FXIIa at room temperature to reach equilibrium. After adding 100 μM Ac-QRFR-pNA substrate (KM=162 μM), enzymatic activity was measured by monitoring release of the pNA moiety using a TECAN infinite M1000 Pro plate reader (A=405 nm, reading interval, 10 s; assay time course, 7 min). Assays were conducted in three times in duplicate. Substrate kinetic constants (Michaelis-Menten) and inhibition constants (Morrison K) were determined by non-linear regression using Prism 7 (GraphPad). Selectivity assays with off-target proteases were performed in a similar way, except that different concentrations of enzyme and substrate were used, as indicated in Table 16. For assays using a fluorescent substrate (peptide-4-methylcoumaryl-7-amide, MCA), black low-binding 96-well plates were used and activity was measured using a TECAN infinite M1000 pro plate reader (λex 360 nm, λem 460 nm, reading interval, 30 s; assay time course, 5-30 min).

Human trypsin = molecular target: T3, Human trypsin (Homo sapiens, UniProt P07477); test: Trypsin competitive inhibition assay; assay type: biochemical
T3 construct: purchased Sigma-Aldrich; host or cells: purified from human tissue
Description: as §8

Human β-FXIIa [7] = molecular target: T1, Human β-FXIIa; test: FXIIa competitive inhibition assay, colorimetric substrate Ac-QRFR-pNA; assay type: biochemical
How it was run: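 Serially diluted inhibitors equilibrated at room temperature with 10 nM β-FXIIa in 0.1 M Tris-HCl pH 8.0, 0.1 M NaCl, 10 mM CaCl2, 0.005% Triton X-100; 100 μM Ac-QRFR-pNA (KM=162 μM), A405 over 7 min. Off-target proteases used differing enzyme/substrate levels, some with fluorogenic MCA substrates (ex 360/em 460 nm, 5-30 min). Morrison Ki by non-linear regression.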

[8] = molecular target: kallikrein-related peptidase 4 (KLK4) (Homo sapiens, UniProt Q9Y5K2); test: KLK4 competitive inhibition assay; assay type: biochemical
Description: The inhibitor variants were screened against FXIIa and three off-target proteases, trypsin, matriptase and kallikrein-related peptidase 4 (KLK4), in competitive inhibition assays using a single concentration of inhibitor that ranged from 1.25 nM (KLK4) to 25 nM (FXIIa).
The activity of acyclic and cyclic MCoFx1-5 and analogues thereof was assessed in competitive inhibition assays, as previously described in Swedberg et al. (2016) J Med Chem, 59: 7287-7292. Human β-FXIIa was obtained from Molecular Innovations, together with human FXa, human FXIa, human α-thrombin, and human plasma kallikrein. Human cationic trypsin and human plasmin were obtained from Sigma-Aldrich, and recombinant human matriptase was sourced from R&D Systems. […] After adding 100 μM Ac-QRFR-pNA substrate (KM=162 μM), enzymatic activity was measured by monitoring release of the pNA moiety using a TECAN infinite M1000 Pro plate reader (A=405 nm, reading interval, 10 s; assay time course, 7 min). […] Substrate kinetic constants (Michaelis-Menten) and inhibition constants (Morrison K) were determined by non-linear regression using Prism 7 (GraphPad). […] For assays using a fluorescent substrate (peptide-4-methylcoumaryl-7-amide, MCA), black low-binding 96-well plates were used and activity was measured using a TECAN infinite M1000 pro plate reader (λex 360 nm, λem 460 nm, reading interval, 30 s; assay time course, 5-30 min).

[9] = tested on: clotting via the intrinsic pathway; test: Activated partial thromboplastin time (aPTT) assay in human plasma; assay type: biochemical
Description: as §5, §6, §7

T1 sequence (P00748 373-615 limits assumed, other chains not shown): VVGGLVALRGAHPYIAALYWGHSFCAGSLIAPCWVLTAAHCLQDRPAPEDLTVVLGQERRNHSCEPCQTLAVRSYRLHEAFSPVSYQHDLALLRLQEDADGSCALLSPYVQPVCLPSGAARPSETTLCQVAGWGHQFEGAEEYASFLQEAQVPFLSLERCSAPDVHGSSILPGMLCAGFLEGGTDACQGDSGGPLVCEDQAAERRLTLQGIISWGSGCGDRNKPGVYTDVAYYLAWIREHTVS
Sequence of kallikrein-related peptidase 4 (KLK4) (Q9Y5K2 31-254): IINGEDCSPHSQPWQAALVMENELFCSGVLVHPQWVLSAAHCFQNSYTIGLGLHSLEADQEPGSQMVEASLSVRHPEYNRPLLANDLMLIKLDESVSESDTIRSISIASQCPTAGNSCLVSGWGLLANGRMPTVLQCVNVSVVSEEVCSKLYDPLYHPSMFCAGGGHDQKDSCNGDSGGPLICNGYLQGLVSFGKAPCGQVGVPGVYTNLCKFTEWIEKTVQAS

| Compound | HEPTEM anticoagulant activity (human blood [1]) | INTEM anticoagulant activity, duration (human blood [2]) | ACT clotting time (human blood [3]; from 0.5 h-6 h) | ACT clotting time maintained over the course of the experiment (human blood [3]) | INTEM clotting time ([4]; 10 μM) | INTEM clotting time ([4]; 20 μM) | ACT clotting time versus therapeutic range (180-220 s) (human whole blood; 10 μM or 20 μM) | ACT clotting time (human whole blood; 20 μM, human whole blood) | Ki (Human β-FXIIa [5]) | clotting time compared to control, PT assay [6] | Ki against matriptase (in words) (Rec. human matriptase) | fold change in activity for matriptase compared to M (Rec. human matriptase) | Ki against trypsin (in words) (Human trypsin) | fold change in activity for trypsin compared to M (Human trypsin) | change in Ki for FXIIa compared to M (Human β-FXIIa [7]) | fold change in activity for KLK4 compared to M [8] | EC1.5× (concentration required to extend the clotting time by 50%) [9] | EC2× (doubling the clotting time) [9] |
| --- | --- | --- | --- | --- | --- | --- | --- | --- | --- | --- | --- | --- | --- | --- | --- | --- | --- | --- |
| CC[C@H](C)[C@@H]1NC(=O)CNC(=O)CNC(=O)[C@H](CC(=O)O)NC(=O)[C@H](CO)NC(=O)CNC(=O)[C@H](CO)NC(=O)CNC(=O)[C@@H]2CSSC[C@@H]3NC(=O)[C@H](CC(=O)O)NC(=O)[C@H](CO)NC(=O)[C@H](CC(=O)O)NC(=O)[C@H](CCCNC(=N)N)NC(=O)[C@H](CCCNC(=N)N)NC(=O)[C@@H]4CSSC[C@H](NC(=O)[C@H]([C@@H](C)CC)NC(=O)[C@H](CSSC[C@H](NC1=O)C(=O)N1CCC[C@H]1C(=O)N[C@@H](CCCNC(=N)N)C(=O)N[C@@H]([C@@H](C)CC)C(=O)NCC(=O)N[C@@H](CCCNC(=N)N)C(=O)N[C@@H](CC(C)C)C(=O)N4)NC(=O)[C@H](C)NC(=O)CNC(=O)[C@@H]1CCCN1C3=O)C(=O)N[C@@H](CCCNC(=N)N)C(=O)N[C@@H](C)C(=O)N[C@@H]([C@@H](C)O)C(=O)N[C@@H](CCCNC(=N)N)C(=O)N[C@@H](Cc1ccccc1)C(=O)N2 [Cyclic MCoFx7] (cyclo(ACICRATRFCGSGSDGGICPRIGRLCRRDSDCPG); disulfide 2-19, 4-26, 10-32) | independent of heparin | anticoagulant activity was maintained for 6 h | > 300 s | more than 200 s | 469 s | 521 s | within the therapeutic range | 223 s | 0.064 nM |  |  |  |  |  |  |  |  |  |
| NH2-RVCPR[4-F-Phe]EKKCRRDSDCPGACICRGNGYCG-OH (RVCPRXEKKCRRDSDCPGACICRGNGYCG; 4-F-Phe non-natural residue; MOD_RES 6 4-fluoro-L-phenylalanine) [Peptide 1] |  |  |  |  |  |  |  |  |  | No effect on clotting time | in the micromolar range | 9,650 fold | in the micromolar range | 7,350 fold | three-fold | > 100,000 fold | 840 nM | 2.9 µM |
